Source: patent US20200038419A1, “METHODS OF TREATING MULTIPLE SYSTEM ATROPHY USING AMINOSTEROL COMPOSITIONS” (Enterin, Inc., priority 2018, published 2020)

How the values were obtained:
[1] = test system: IPANs (intrinsic primary afferent neuron); settings: isolated bowel segment, PD mouse model, luminal perfusion; cited from earlier work
[2] = Pharmacokinetics of orally administered squalamine (ENT-01) in Stage 1; format: in vivo; settings: human, this study
Protocol: PK data were collected on the 10 patients enrolled in Stage 1 and 10 patients enrolled in Stage 2 to determine the extent of systemic absorption. In Stage 1, PK data were obtained at each visit, pre-medication, at 1, 2, 4, 8 and 24 hours (Table 10). In Stage 2, PK was measured on days 1 and 6 of the randomization period pre-medication, at 1, 2, 4 and 8 hours (Table 11).
The mean Cmax, Tmax and T1/2 and AUC of the squalamine ion following squalamine (ENT-01) oral dosing for Stage 1 patients. The PK analyses are only approximate, as the lower limit of the validated concentration range was 10 ng/ml; most of the measured concentrations fell below that value. The mean Cmax, Tmax and T1/2 and AUC of the squalamine ion following squalamine (ENT-01) oral dosing for Stage 2 patients. The PK analyses are only approximate, as the lower limit of the validated concentration range was 0.5 ng/ml.

[3] = following systemic administration, in mice; cited from earlier work
mouse models of PD = settings: oral; mice with constipation due to overexpression of human αS (West et al, manuscript in preparation); cited from earlier work
patients with PD [4] = assay: Circadian rhythm of wrist skin temperature; format: in vivo, human; settings: for circadian rhythm of wrist skin temperature (IS, IV, RA, CFI): fixed dose vs baseline, 12 evaluable patients
Protocol: (6) I-Button Temperature Assessment. The I-Button is a small, rugged self-sufficient system that measures temperature and records the results in a protected memory section. The Thermochron I-Button DS1921H (Maxim Integrated, Dallas, Tex.) was used for skin temperature measurement. I-Buttons were programmed to sample every 10 mins., and attached to a double-sided cotton sport wrist band using Velcro, with the sensor face of the I-Button placed over the inside of the wrist, on the radial artery of the dominant hand. Subjects removed and replaced the data logger when necessary (i.e., to have a bath or shower). The value of skin temperature assessment in sleep research is that the endogenous skin warming resulting from increased skin blood flow is functionally linked to sleep propensity. From the collected data, the mesor, amplitude, acrophase (time of peak temperature), Rayleight test (an index of interdaily stability), mean waveforms are calculated.);
Circadian rhythm of skin temperature was evaluable in 12 patients (i.e., those who had recordings that extended from baseline through washout). Circadian system functionality was evaluated by continuously monitoring wrist skin temperature using a temperature sensor (Thermochron iButton DS1921H; Maxim, Dallas, Tex.) (Sarabia et al. 2008). A nonparametric analysis was performed for each participant to characterize DST as previously described (Sarabia et al. 2008; Ortiz-Tudela et al. 2010).
Briefly, this analysis includes the following parameters: (i) the inter-daily stability (the constancy of 24-hour rhythmic pattern over days, IS); (ii) intra-daily variability (rhythm fragmentation, IV); (iii) average of 10-minute intervals for the 10 hours with the minimum temperature (L10); (iv) average of 10-minute intervals for the 5 hours with the maximum temperature (M5) and the relative amplitude (RA), which was determined by the difference between M5 and L10, divided by the sum of both. Finally, the Circadian Function Index (CFI) was calculated by integrating IS, IV, and RA. […]

[5] = test system: patients with PD and constipation; assay: Adverse events, Stage 1; format: in vivo, human; settings: Stage 1, 10 dosed
Source text: Tolerability limits included diarrhea or vomiting.

patients with PD [6] = assay: CNS / neurological symptoms in Stage 2 (UPDRS, MMSE, PDHQ, BDI-II); format: in vivo, human; settings: during treatment; patients with hallucinations (5) or delusions (1) at baseline
Source text: Exploratory end-points, in addition to constipation, included for example, (i) depression assessed using the Beck Depression Inventory (BDI-II) (Steer et al. 2000) and Unified Parkinson's Disease Rating Scale (UPDRS); (ii) cognition assessed using the Mini Mental State Examination (MMSE) (Palsteia et al. 2018), Unified Parkinson's Disease Rating Scale (UPDRS), and Trail Making Test (TMT); (iii) sleep and REM-behavior disorder (RBD) using a daily sleep diary, I-Button Temperature Assessment, a REM sleep behavior disorder (RBD) questionnaire (RBDQ) (Stiasny-Kolster et al. 2007), and the UPDRS; (iv) hallucinations assessed using the PD hallucinations questionnaire (PDHQ) (Papapetropoulos et al. 2008), the UPDRS, and direct questioning; (v) fatigue using the Parkinson's Disease Fatigue Scale (PFS-16) and the UPDRS; (vi) motor functions using the UPDRS; and (vii) non-motor functions using the UPDRS.
Assessments were made at baseline and at the end of the fixed dose and washout periods. Circadian system status was evaluated by continuously monitoring wrist skin temperature (Thermochron iButton DS1921H; Maxim, Dallas) following published procedures (Sarabia et al. 2008). […]
CNS symptoms were evaluated at baseline and at the end of the fixed dose period and the wash-out period (Table 12). […]

[7] = test system: patients with PD and constipation; assay: Adverse events, Stage 2; format: in vivo, human; settings: Stage 2, number of patients
Protocol: (§1) In Stage 2, 34 patients were evaluated.

[8] = test system: patients with PD and constipation; assay: Phase 2 trial Stage 2 (daily dosing): bowel function, stool related indices; format: in vivo, human
Protocol: as §1
The primary efficacy outcome variable was whether or not a subject was a “success” or “failure”. This is an endpoint based on subject diary entries for the “fixed dose” period prior to the endpoint assessment defined as average complete stool frequency increase by 1 or more over baseline, or 3 or more complete spontaneous stools/week. The subject was deemed a “success” if s/he met one or more of the criteria listed above, otherwise the subject was deemed a “failure”. The primary analysis was based on all subjects with a baseline assessment and an assessment at the end of the “fixed-dose” period and was a comparison of the proportion of successes with 0.10 (the null hypothesis corresponding to no treatment effect).

CC(C)[C@@H](CC[C@@H](C)[C@H]1CC[C@H]2[C@@H]3[C@H](O)C[C@H]4C[C@@H](NCCCNCCCCN)CC[C@]4(C)[C@H]3CC[C@]12C)OS(=O)(=O)O [squalamine]
effect on IPANs [1]: excitation of IPANs
systemic absorption following oral administration [2]: not significantly absorbed into the systemic circulation
clearance and excretion [3]: cleared by the liver and excreted as the intact molecule
gastro-intestinal motility (mouse models of PD): stimulates gastro-intestinal motility

CC(C)[C@@H](CC[C@@H](C)[C@H]1CC[C@H]2[C@@H]3[C@H](O)C[C@H]4C[C@@H](NCCCNCCCCN)CC[C@]4(C)[C@H]3CC[C@]12C)OS(=O)(=O)O (single isomer, unassigned) [squalamine (ENT-01), squalamine]
circadian rhythm of wrist skin temperature (IS, IV, RA, CFI) (patients with PD [4]): significant positive impact
circadian rhythm of wrist skin temperature (IS, IV, RA, CFI) (patients with PD [4]; listed as ENT-01): improved all markers of healthy circadian function
circadian rhythm parameters (IS, CFI) (patients with PD [4]; wash-out period vs baseline): improvement persisted for several of these circadian parameters
Abdominal pain, Mild [5]: 2 (20) n
Abdominal pain, Moderate [5]: 3 (30) n
Blood in urine, Moderate [5]: 0 n
Diarrhea, Mild [5]: 1 (10) n
Diarrhea, Moderate [5]: 3 (30) n
Diarrhea, Severe [5]: 0 n
Difficulty falling asleep, Mild [5]: 0 n
Difficulty falling asleep, Moderate [5]: 0 n
Dizziness, Mild [5]: 0 n
Dizziness, Moderate [5]: 0 n
Eye infection, Mild [5]: 0 n
Eye infection, Moderate [5]: 0 n
Flatulence, Mild [5]: 2 (20) n
Flatulence, Moderate [5]: 0 n
Headache, Mild [5]: 1 (10) n
Headache, Moderate [5]: 0 n
Increased urinary frequency, Mild [5]: 0 n
Increased urinary frequency, Moderate [5]: 0 n
Loss of appetite, Moderate [5]: 0 n
Lower GI bleed, Severe [5]: 0 n
Nausea, Mild [5]: 4 (40) n
Nausea, Moderate [5]: 0 n
Skin lesions-rash, Mild [5]: 0 n
Skin lesions-rash, Moderate [5]: 0 n
Urinary retention, Mild [5]: 0 n
Urinary retention, Moderate [5]: 0 n
Urinary tract infection, Mild [5]: 0 n
Urinary tract infection, Moderate [5]: 0 n
Vomiting, Mild [5]: 1 (10) n
Vomiting, Moderate [5]: 0 n
Worsening acid reflux, Mild [5]: 0 n
Worsening acid reflux, Moderate [5]: 0 n
Worsening hemorrhoid, Mild [5]: 0 n
Worsening hemorrhoid, Moderate [5]: 0 n
Blood in urine, Mild ([5]; unrelated to ENT-01): 1 (10) n
Loss of appetite, Mild ([5]; unrelated to ENT-01): 1 (10) n
patients in whom hallucinations and delusions improved or disappeared (patients with PD [6]): 5 of 6
patients who withdrew during dosing because of diarrhea [7]: 2
response rate (CSBM within 24 hours of dosing on at least 2 of 3 days) ([8]; Stage 2, daily dosing, at 250 mg (range 75-250 mg)): 85%
SBM, weekly average ([8]; Stage 2, fixed dose, mean (SD), n = 34, baseline 2.6 (1.45)): 4.5 (2.21) /week
